Measured values taken from PMC6112376, “Comprehensive Analyses and Prioritization of Tox21 10K Chemicals Affecting Mitochondrial Function by in-Depth Mechanistic Studies” (Environmental Health Perspectives, 2018).
Where a name gives a salt, the structure may show the parent alone. Read-outs that look alike come from different tables or passages of the source.

Tests used:
[1] = system: HepG2 cells; assay: cells; details: Homo sapiens; for IC50: HepG2, read-out: MMP assays IC50 (µM) HepG2; for Emax: HepG2, read-out: MMP assays efficacy (%) HepG2
[2] = system: rat primary hepatocytes; assay: MMP assay in rat primary hepatocytes; details: for IC50: Rattus norvegicus, Hepatocyte, read-out: MMP assays IC50 (µM) Rat Hepatocytes; for MMP assays efficacy (%) Rat Hepatocytes / MMP assays IC50 (µM) Rat Hepatocytes: mean ± SD of three experiments
[3] = system: HepG2 cells; details: cited from earlier work
[4] = read-out: MMP assays IC50 (µM) qHTS-HepG2
[5] = read-out: MMP assays IC50 (µM), qHTS-HepG2

| Compound | IC50 [1] | Emax [1] | IC50 [2] | MMP assays efficacy (%) Rat Hepatocytes [2] | MMP assays efficacy (%) qHTS-HepG2 [3] | IC50 [3, 4] | MMP assays IC50 (µM) Rat Hepatocytes [2] | IC50 [3, 5] |
| --- | --- | --- | --- | --- | --- | --- | --- | --- |
| O=c1cc(-c2ccccc2)oc2cc(O)cc(O)c12 [Chrysin] | 7.08 µM | 105% | 30.6 ± 28.4 µM | -78±36% | -103±9% | 5.05 ± 2.76 µM | – | – |
| CC(C)C(=O)OCC(=O)[C@@]12O[C@H](C3CCCCC3)O[C@@H]1C[C@H]1[C@@H]3CCC4=CC(=O)C=C[C@]4(C)[C@H]3[C@@H](O)C[C@@]12C [Ciclesonide] | 15.5 µM | 103% | – | inactive | – | 7.91 ± 1.38 µM | inactive | – |
| COCCOC(=O)C1=C(C)NC(C)=C(C(=O)OC/C=C/c2ccccc2)C1c1cccc([N+](=O)[O-])c1 (stereo not shown) [Cilnidipine] | 12.3 µM | 109% | 14.8 ± 8.07 µM | -75±17% | -104±6% | 12.5 ± 1.78 µM | – | – |
| CCC(CC)(CC(=O)Nc1cccc(/C=C/c2nc(C3CCC3)cs2)c1)C(=O)O [Cinalukast] | 17.3 µM | 96% | 13.5 ± 5.36 µM | -67±19% | -92±29% | 28.8 ± 1.17 µM | – | – |
| O=C(Nc1ccc(Cl)cc1)Nc1ccc(Cl)c(C(F)(F)F)c1 [Cloflucarban] | 0.44 µM | 85% | 0.58 ± 0.05 µM | -95±5% | -113±9% | 0.6 µM | – | – |
| CC(C)(C)CC(C)(C)c1ccc(O)c(Cc2ccc(Cl)cc2Cl)c1 [Clofoctol] | 4.35 µM | 92% | 15.7 ± 6.04 µM | -65±37% | -112±5% | 1.64 ± 0.13 µM | – | – |
| Oc1ccc(Cl)c2cccnc12 [Cloxyquin] | 15.5 µM | 79% | – | inactive | -58±10% | 16.8 ± 5.94 µM | inactive | – |
| CC1=NN(c2ccccc2)C(=O)C1 [Compound 1-Phenyl-3-methyl-5-pyrazolone] | 28.2 µM | 82% | 25.8 ± 10.1 µM | -62±9% | -121±16% | 31.8 ± 4.28 µM | – | – |
| Nc1ccc([N+](=O)[O-])cc1O [Compound 2-Amino-5-nitrophenol] | 35.5 µM | 76% | 52.1 ± 17.7 µM | -63±37% | -70±18% | 27.4 ± 14.1 µM | – | – |
| Oc1ccc(-c2ccccc2)cc1Cl [Compound 2-Chloro-4-phenylphenol] | 15.8 µM | 99% | 31.8 ± 3.65 µM | -109±36% | -138±26% | 15.4 ± 7.86 µM | – | – |
| Cc1ccc2c(c1[N+](=O)[O-])C(=O)c1ccccc1C2=O [Compound 2-Methyl-1-nitroanthraquinone] | 2.77 µM | 88% | 16.9 ± 14.7 µM | -84±16% | -63±13% | 1.34 ± 0.15 µM | – | – |
| Cc1ccc2c(c1)C(=O)c1ccccc1C2=O [Compound 2-Methylanthraquinone] | 11.2 µM | 51% | 5.97 ± 0.49 µM | -36±2% | -77±13% | 6.33 ± 1.15 µM | – | – |
| CCc1ccc(O)c(C(C)(C)C)c1 [Compound 2-tert-Butyl-4-ethylphenol] | 15.8 µM | 95% | – | inactive | -103±6% | 11.3 ± 2.6 µM | inactive | – |
| Cc1ccc(C(C)(C)C)c(O)c1 [Compound 2-tert-Butyl-5-methylphenol] | 5.01 µM | 95% | 40.1 ± 6.5 µM | -66±11% | -96±7% | 23.5 ± 2.85 µM | – | – |
| Oc1cccc(Nc2ccccc2)c1 [Compound 3-Hydroxy-N-phenylaniline] | 35.5 µM | 110% | – | inactive | -110±13% | 28.5 ± 6.04 µM | inactive | – |
| Cc1cccc(Nc2ccccc2)c1 [Compound 3-Methyl-N-phenylaniline] | 28.2 µM | 66% | 35.5 µM | -74±25% | -93±25% | 48.6 ± 5.61 µM | – | – |
| Nc1ccc(O)c([N+](=O)[O-])c1 [Compound 4-Amino-2-nitrophenol] | 14.1 µM | 97% | 33.5 ± 2.73 µM | -90±12% | -86±33% | 15.4 ± 10.6 µM | – | – |
| O=C(c1ccccc1)c1ccc(O)cc1 [Compound 4-Hydroxybenzophenone] | 28.2 µM | 116% | 17.8 ± 28 µM | -82±39% | -87±12% | 41.3 ± 18.1 µM | – | – |

| Compound | IC50 [1] | Emax [1] | IC50 [2] | MMP assays efficacy (%) Rat Hepatocytes [2] | MMP assays efficacy (%) qHTS-HepG2 [3] | IC50 [3, 4] | MMP assays IC50 (µM) Rat Hepatocytes [2] | IC50 [3, 5] |
| --- | --- | --- | --- | --- | --- | --- | --- | --- |
| CC(C)(C)c1ccc(O)c(O)c1 [Compound 4-tert-Butylcatechol] | 31.6 µM | 90% | – | inactive | -103±20% | 34.3 ± 15 µM | inactive | – |
| OCc1c2ccccc2cc2ccccc12 [Compound 9-Anthracenemethanol] | 19.9 µM | 88% | 21.7 ± 15.7 µM | -68±25% | -104±23% | 34.5 ± 11.5 µM | – | – |
| CC(C)(C)c1cc(/C=C2\SC(N)=NC2=O)cc(C(C)(C)C)c1O [Darbufelone mesylate] | 5.62 µM | 102% | 7.15 ± 5.41 µM | -105±22% | -110±13% | 11.7 ± 2.02 µM | – | – |
| CC(=O)Oc1cccc2c1C(=O)c1c(OC(C)=O)cc(C(=O)O)cc1C2=O [Diacerein] | 17.3 µM | 61% | 14.2 ± 11.3 µM | -70±14% | -81±16% | 20.6 ± 8.26 µM | – | – |
| CCC(=O)Oc1ccc(/C(CC)=C(\CC)c2ccc(OC(=O)CC)cc2)cc1 [Diethylstilbestrol dipropionate] | 7.08 µM | 101% | 49.3 ± 19.5 µM | -38±22% | -112±3% | 10.5 ± 2.66 µM | – | – |
| CC/C(=C(/CC)c1ccc(O)cc1)c1ccc(O)cc1 [Diethylstilbestrol] | – | 112% | 25.2 ± 21.7 µM | – | -105±14% | – | – | – |
| O=c1c(-c2ccccc2)c1-c1ccccc1 [Diphenylcyclopropenone] | 27.5 µM | 79% | – | inactive | -79±6% | 25.6 ± 1.67 µM | inactive | – |
| CCCCCCCCCCCCOC(=O)c1cc(O)c(O)c(O)c1 [Dodecyl gallate] | 7.94 µM | 100% | 48.7 ± 8.3 µM | -65±17% | -99±8% | 4.75 ± 1.81 µM | – | – |
| O=c1c2ccccc2[se]n1-c1ccccc1 [Ebselen] | 19.4 µM | 112% | 21.4 ± 5.35 µM | -58±5% | -94±8% | 23.2 ± 0.93 µM | – | – |
| O=C1OC[C@H](Cc2cccc(O)c2)[C@H]1Cc1cccc(O)c1 [Enterolactone] | 10.7 µM | 76% | – | inactive | -79±21% | 9.99 ± 5.02 µM | inactive | – |
| CC(=O)Oc1ccc2c(c1)CC[C@@H]1[C@@H]2CC[C@]2(C)[C@@H](O)CC[C@@H]12 [Estradiol acetate] | 17.3 µM | 95% | – | inactive | -85±4% | 9.08 ± 0.59 µM | inactive | – |
| CCOc1ccc(/N=N/c2ccc(N)cc2N)cc1 [Ethoxazene] | 2.82 µM | 94% | 4.96 ± 3.42 µM | -106±32% | -91±7% | 2.7 ± 1.13 µM | – | – |
| O=C(O)c1ccccc1Nc1cccc(C(F)(F)F)c1 [Flufenamic acid] | 17.3 µM | 108% | 14.5 ± 4.99 µM | -111±31% | -129±20% | – | – | 36.6 ± 1.87 µM |
| Cc1c(Nc2ncccc2C(=O)O)cccc1C(F)(F)F [Flunixin meglumine] | 7.4 µM | 83% | 5.77 ± 4.59 µM | -107±11% | -123±14% | – | – | 9.02 µM |
| O=C1c2ccccc2C(=O)N1SC(Cl)(Cl)Cl [Folpet] | 14.1 µM | 100% | 33.7 ± 20.2 µM | – | -107±6% | – | – | 8.25 ± 0.54 µM |
| COc1ccc(-c2coc3cc(O)ccc3c2=O)cc1 [Formononetin] | 17.8 µM | 80% | 13.2 ± 16.2 µM | -74±27% | -85±16% | – | – | 13.2 ± 4.88 µM |
| CCC(=O)O[C@]1(C(=O)CCl)[C@@H](C)C[C@H]2[C@@H]3C[C@H](F)C4=CC(=O)C=C[C@]4(C)[C@@]3(F)[C@@H](O)C[C@@]21C [Halobetasol propionate] | 13.8 µM | 127% | 25.2 ± 7.02 µM | -82±13% | -106±7% | – | – | 15.2 ± 5.52 µM |
